The source of these data is patent US10494338B2, “Prostaglandin derivative” (AGC INC., priority 2016, dated 2019).

For one experiment, the system named is rat platelet aggregation. As to the kind of experiment: Inhibitory action on rat platelet aggregation in vitro (ADP-induced, platelet-rich plasma). As to conditions: SD rat PRP, ADP 2 μmol/L; relative activity from IC50, activity of IC50 value of PGE1 = 100. In kind it is cell-based. Here is the method: Experimental Example 2: Evaluation of Inhibitory Action on Rat Platelet Aggregation In Vitro (1) Preparation of Rat Platelet-Rich Plasma In the same manner as in the above-mentioned Experimental Example 1(1), blood samples were collected from the abdominal artery of 8- to 9-week-old male SD rats. PRP was diluted with PPP and the number of platelet was adjusted to 63.2×10^4/μL. (2) Measurement of Platelet Aggregation Ability In the same manner as in the above-mentioned Experimental Example 1(2) except that the final concentration of ADP was 2 μmol/L, the compound of the present invention, prostaglandin E1 (PGE1:positive control substance) or vehicle control was added as a test substance, and the maximum response of aggregation was measured. (3) Evaluation of Platelet Aggregation Inhibitory Action In the same manner as in the above-mentioned Experimental Example 1(3), IC50 values were determined from the aggregation inhibition ratio of the test substance, and the relative activity (%) of each test substance was calculated by defining the activity of IC50 value of PGE1 as 100.

For experiment [1], the system named is human platelet aggregation. As to the kind of experiment: Human platelet aggregation inhibitory action in vitro (ADP-induced, platelet-rich plasma). It counts as cell-based. As to conditions: human PRP, ADP 3 μmol/L; relative activity from IC50, activity of IC50 value of limaprost = 100. Here is the method: Experimental Example 1: Evaluation of Human Platelet Aggregation Inhibitory Action In Vitro
(1) Preparation of Human Platelet-Rich Plasma
Using 3.8 w/v % sodium citrate as an anticoagulant, blood samples were collected from human brachial vein at a ratio of sodium citrate solution:blood (volume ratio)=1:9, and an upper layer of platelet-rich plasma (PRP) was collected by centrifugation (120×g, 10 min). Platelet poor plasma (PPP) was prepared from PRP-free blood by centrifugation (1700×g, 10 min). The number of platelets in PRP was measured and adjusted to 25×10^4/μL by diluting with PPP.
(2) Measurement of Platelet Aggregation Ability
The platelet aggregation ability was measured by a platelet aggregometer (PRP313 M, IMI Co., Ltd.) according to the method of Born (Nature, 1962, vol. 194, pp. 927-929). PRP (190 μL) was placed in a glass cuvette and mounted on the platelet aggregometer. Then, 5 μL of the compound of the present invention, limaprost (positive control substance) or vehicle control (0.25 vol % dimethyl sulfoxide [DMSO]) was added as a test substance, and the mixture was incubated at 37° C. for 10 min. ADP (LMS Co., Ltd.) (5 μL) as a platelet aggregation agent was added at 3 μmol/L in a final concentration to cause aggregation, and the maximum response of the aggregation was measured.
(3) Evaluation of Inhibitory Action on Platelet Aggregation
The aggregation inhibition ratio of a test substance was determined by defining the maximum aggregation ratio of control as 100%, and IC50 value was determined by using “Dx calculation (linear fitting): non-logit transformation” of SAS System Version 9.1.3 (Stat Preclinica Client Ver. 1.1 SAS Institute Japan, Ltd.). Furthermore, the relative activity (%) of each test substance was calculated by defining the activity of IC50 value of limaprost as 100.

For experiment [2], the system named is rat cauda equine blood flow. As to the kind of experiment: Increasing effect on rat cauda equine blood flow (intravenous infusion, laser Doppler). It counts as in vivo. Particulars: Wistar rat, tail vein infusion 10 min; relative activity from ED20 (dose increasing cauda equine blood flow by 20%), limaprost = 100. Here is the method: Experimental Example 4: Evaluation of Increasing Effect on rat Cauda Equine Blood Flow
(1) Administration of Test Substance
The compound of the present invention or limaprost (positive control substance) as a test substance was injected at 0.263, 0.789 and 2.63 nmol/kg in principle to Slc:Wistar male rats (body weight: about 200-250 g) from the tail vein at a flow rate of 0.2 mL/min for 10 min with an infusion pump (model 11, Harvard Apparatus). A vehicle (1 vol % DMSO-physiological saline) was similarly injected to the control group (5-6 […] in each group).
(2) Measurement of Cauda Equine Blood Flow
The rats were fixed in a prone position under halothane anesthesia and kept warm by a heater (Nippon Medical & Chemical Instruments Co., Ltd.). The lower back of the rats was shaved, dissected to expose the spine, the vertebral arch of the fifth lumbar vertebra was excised and cauda equina was exposed. The cauda equine blood flow was measured by a laser Doppler blood flow meter (TBF-LN1, Unique Medical Co., Ltd.) via a non-contact type probe (LP-NC special type, Unique Medical Co., Ltd.) fixed perpendicularly to a position of the exposed cauda equina upper by about 1 mm from before administration of each test substance until 60 min after the administration. The open wound was filled with liquid paraffin to prevent drying of the exposed cauda equina.
The obtained data was taken into a personal computer via PowerLab8/30 (registered trade mark, ML870, ADInstruments) every 1/400 second, and analyzed using LabChart (registered trade mark, ADInstruments). The analysis time points were before administration (administration 0 min), and 3, 5, 8, 10, 13, 15, 18, 20, 30, 40, 50 and 60 min after administration, or before administration (administration 0 min), and 3, 5, 10, 15, 20, 30, 40, 50 and 60 min after administration. The mean value for 10 seconds at each time point was taken as the measurement value, and the change rate (%) relative to the value before administration was obtained by the following equation. The rate of change (%)=(measurement value at each time point after administration−measurement value before administration)/measurement value before administration×100
Furthermore, difference in the rate of change (%) relative to the control group at each time point [Δ change rate (%)] was calculated by the following equation, and the maximum value of the Δ change rate was taken as the maximum change rate. Δchange rate (%)=change rate of each individual at each time point−mean of change rate of control group
From the maximum change rate at each dose of the test substance, the dose at which the cauda equine blood flow increases by 20% (ED20 value) was determined by linear regression equation, and the relative activity (%) of each test substance was calculated based on the activity of ED20 value of limaprost as 100.

In experiment [3] the test system is guinea pig platelet aggregation. As to the kind of experiment: Persistent inhibitory action on guinea pig platelet aggregation ex vivo after single oral dose. It counts as in vivo. Particulars: for AUC: 1-inhibition 0 hr / AUC: 6-inhibition 0 hr: AUC of maximum aggregation inhibition ratio (%) vs time (hr), oral IC50 dose; for AUC: 1-inhibition 0 hr: from 1 hr after administration to inhibition 0 hr; for AUC: 6-inhibition 0 hr: from 6 hr after administration to inhibition 0 hr; for Inhibition 0 hr: assumed time at which maximum aggregation inhibition ratio became 0%, single oral dose at IC50 dose; for Inhibition 0 hr / single oral dose showing the IC50 value: guinea pig; for single oral dose showing the IC50 value: blood collected 4 hr later, ADP 0.5 μmol/L; for AUC: 1-inhibition 0 hr (% relative to limaprost) / AUC: 6-inhibition 0 hr (% relative to limaprost): value in brackets, limaprost = 100. Here is the method:
Experimental Example 3: Evaluation of Persistent Inhibitory Action on Guinea Pig Platelet Aggregation Ex Vivo
(1) Measurement of IC50 Value
As a test substance, a single oral dose of the compound of the present invention (3 doses of 79, 132 and 263 nmol/kg), limaprost (positive control substance: 3 doses of 79, 263 and 789 nmol/kg) or vehicle control (water for injection containing 0.26 vol % DMSO) was administered at 10 mL/kg to 4- to 10-week-old male Hartley guinea pigs. Blood samples were collected from the abdominal artery 4 hr later, platelet aggregation ability was measured, and the IC50 value was calculated from the aggregation inhibitory activity (aggregation was induced by 0.5 μmol/L ADP) in the same manner as in the above-mentioned Experimental Example 1(3).
(2) Administration of Test Substance and Preparation of Platelet-Rich Plasma
Blood samples were collected from the abdominal artery of the guinea pig at 1, 2, 4, 6, 10, 16 and 24 hr later. PRP was diluted with PPP and the number of platelet was adjusted to about 60×10^4/μL in the same manner as in the above-mentioned Experimental Example 1(1) (n=3−4).
(3) Measurement of Platelet Aggregation
In the same manner as in the above-mentioned Experimental Example 1(2), the platelet aggregation ability was measured according to the method of Born. PRP (190 μL) was placed in a glass cuvette, mounted on the platelet aggregometer and incubated at 37° C. for 10 min. ADP (10 μL) as platelet aggregation agent was added at 0.5 μmol/L in a final concentration to cause aggregation, and the maximum reaction of the aggregation was measured.
(4) Evaluation of Persistent Inhibitory Action on Platelet Aggregation
The maximum aggregation inhibition ratio of the test substance based on the maximum aggregation inhibition ratio of the control group as 0% was determined from the maximum coagulation ratio of the control group and the maximum coagulation ratio of the test substance when IC50 values were calculated. […] In addition, the assumed time at which the maximum aggregation inhibition ratio became 0% on the graph was determined as the time at which inhibition of aggregation disappeared (inhibition 0 hr).

As for `CCC#CC[C@H](C)C(O)/C=C/[C@H]1[C@H](O)CC(=O)[C@@H]1CCSCCCC(=O)OC` (mixture of isomers) [compound (1)-1, methyl 4-((2-((1R,2R,3R)-3-hydroxy-2-((1E,3RS,4S)-3-hydroxy-4-methylnon-1-en-6-yn-1-yl)-5-oxocyclopentyl)ethyl)thio)butanoate], in the experiment with rat platelet aggregation, the “Relative activity (%)” value was found to be 169%.

For the compound `CCC#CC[C@H](C)[C@H](O)/C=C/[C@H]1[C@H](O)CC(=O)[C@@H]1CCCCCCC(=O)OCc1oc(=O)oc1C` [compound (1)-4, (5-methyl-2-oxo-1,3-dioxol-4-yl)methyl 7-((1R,2R,3R)-3-hydroxy-2-((1E,3S,4S)-3-hydroxy-4-methylnon-1-en-6-yn-1-yl)-5-oxocyclopentyl)heptanoate], the “Relative activity (%)” value in experiment [1] was found to be 643%; in experiment [2] it was 147%.

For the compound `CCC#CC[C@H](C)[C@H](O)/C=C/[C@H]1[C@H](O)CC(=O)[C@@H]1CCCCCCC(=O)OCC(=O)C(C)(C)C` [compound (1)-5, 3,3-dimethyl-2-oxobutyl 7-((1R,2R,3R)-3-hydroxy-2-((1E,3S,4S)-3-hydroxy-4-methylnon-1-en-6-yn-1-yl)-5-oxocyclopentyl) heptanoate], the “Relative activity (%)” value in experiment [1] came to 161%.

As for `CCC#CC[C@H](C)[C@H](O)/C=C/[C@H]1[C@H](O)CC(=O)[C@@H]1CCCCCCC(=O)O` [compound (1)-6, 7-((1R,2R,3R)-3-hydroxy-2-((1E,3S,4S)-3-hydroxy-4-methylnon-1-en-6-yn-1-yl)-5-oxocyclopentyl)heptanoic acid], the “Relative activity (%)” value was 923% in experiment [1] and 383% in experiment [2].

Consider `CCC#CC[C@H](C)[C@H](O)/C=C/[C@H]1[C@H](O)CC(=O)[C@@H]1CCCC/C=C/C(=O)O` [compound (1)-7, (2E)-7-((1R,2R,3R)-3-hydroxy-2-((1E,3S,4S)-3-hydroxy-4-methylnon-1-en-6-yn-1-yl)-5-oxocyclopentyl)hept-2-enoic acid], for which, in experiment [1], the “Relative activity (%)” value amounted to 1319%. Besides, in experiment [3], the AUC: 1-inhibition 0 hr worked out at 713 %·h, the AUC: 6-inhibition 0 hr turned out to be 526 %·h, the “Inhibition 0 hr” value is greater than 24 h and the “single oral dose showing the IC50 value” stood at 168 nmol/kg. In experiment [3], the “AUC: 1-inhibition 0 hr (% relative to limaprost)” value came out at 202% and the “AUC: 6-inhibition 0 hr (% relative to limaprost)” value was found to be 359%. The “Relative activity (%)” value in experiment [2] turned out to be 375%.

As for `C[C@@H](CC#CC1CC1)[C@H](O)/C=C/[C@H]1[C@H](O)CC(=O)[C@@H]1CCCCCCC(=O)O` [compound (1)-9, 7-((1R,2R,3R)-2-((1E,3S,4S)-7-cyclopropyl-3-hydroxy-4-methylhept-1-en-6-yn-1-yl)-3-hydroxy-5-oxocyclopentyl)heptanoic acid], the “Relative activity (%)” value in experiment [1] was 1200%. In addition, in experiment [3], the AUC: 1-inhibition 0 hr amounted to 627 %·h, the AUC: 6-inhibition 0 hr amounted to 401 %·h, the “Inhibition 0 hr” value came out at 19.7 h and the “single oral dose showing the IC50 value” is 178 nmol/kg. In experiment [3], the “AUC: 1-inhibition 0 hr (% relative to limaprost)” value is reported as 178% and the “AUC: 6-inhibition 0 hr (% relative to limaprost)” value is 273%. Further, in experiment [2], the “Relative activity (%)” value was found to be 311%.

Consider `C[C@@H](CC#CC1CC1)[C@H](O)/C=C/[C@H]1[C@H](O)CC(=O)[C@@H]1CCCC/C=C/C(=O)O` [compound (1)-10, (2E)-7-((1R,2R,3R)-2-((1E,3S,4S)-7-cyclopropyl-3-hydroxy-4-methylhept-1-en-6-yn-1-yl)-3-hydroxy-5-oxocyclopentyl)hept-2-enoic acid], for which the “Relative activity (%)” value in experiment [1] stood at 1481%. Also, in experiment [3], the AUC: 1-inhibition 0 hr amounted to 719 %·h, the AUC: 6-inhibition 0 hr is 508 %·h, the “Inhibition 0 hr” value is greater than 24 h and the “single oral dose showing the IC50 value” was 187 nmol/kg. In addition, in experiment [3], the “AUC: 1-inhibition 0 hr (% relative to limaprost)” value is 204% and the “AUC: 6-inhibition 0 hr (% relative to limaprost)” value came out at 346%. For the same compound, in experiment [2], the “Relative activity (%)” value was 550%.

With `CCCC[C@H](C)C[C@H](O)/C=C/[C@H]1[C@H](O)CC(=O)[C@@H]1CCCC/C=C/C(=O)O` [limaprost, (2E)-7-((1R,2R,3R)-3-hydroxy-2-((1E,3S,5S)-3-hydroxy-5-methylnon-1-en-1-yl)-5-oxocyclopentyl)hept-2-enoic acid, reference compound], the “Relative activity (%)” value in experiment [1] is reported as 100%. Also, in experiment [3], the AUC: 1-inhibition 0 hr worked out at 353 %·h, the AUC: 6-inhibition 0 hr was 147 %·h, the “Inhibition 0 hr” value came to 12.1 h and the “single oral dose showing the IC50 value” was 266 nmol/kg. For the same compound, in experiment [3], the “AUC: 1-inhibition 0 hr (% relative to limaprost)” value came to 100% and the “AUC: 6-inhibition 0 hr (% relative to limaprost)” value amounted to 100%. For the same compound, the “Relative activity (%)” value in experiment [2] is recorded as 100%.
